Drawing on patent US20060252820A1, “Composition for oral administration containing alkylene dioxybenzene derivative” (priority 2003, published 2006), this text covers symptoms recognized and half-life for one molecule.

The data set is described as follows: Conventional preparation of MKC-242 administered to a human. The data set is classed as in vivo. The settings on record: conventional preparation (tablet) administered to a human.

With `Cl.c1ccc2c(c1)OC[C@H](CNCCCOc1ccc3c(c1)OCO3)O2` [MKC-242, 5-[3-[[(2S)-1,4-benzodioxan-2-ylmethyl]amino]propoxy]-1,3-benzodioxole hydrochloride], the symptoms recognized entry (depending on drug concentration in plasma, all slight) is “nausea, dizziness, orthostatic syncope”. Also, the half-life (plasma, oral, read-out: half-life T1/2) was in the range of 2 to 5 h.
